Experimental data from PubChem BioAssay (NCI).
Several values for one entry are separate records, joined by “and”; a condition that tells them apart may be missing. Equal values may be shown once.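 Dose response: 5 concentrations. Exposure: 48 h. Format: 96-well plates. Endpoint: linear interpolation; highest concentration if not reached. GI50 is the concentration that inhibits growth by half. TGI is the concentration that stops growth completely.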

Assays:
Test in all cases: inhibition of tumour cell growth, NCI panel, 48 h; in the data active means GI50 below about 0.43 µM; inactive means the rest
EKVX NSCLC = system: EKVX NSCLC
SNB-19 CNS = system: SNB-19 CNS
SK-MEL-2 melanoma = system: SK-MEL-2 melanoma
OVCAR-4 ovarian = system: OVCAR-4 ovarian
TK-10 renal = system: TK-10 renal
SK-OV-3 ovarian = system: SK-OV-3 ovarian
786-0 renal = system: 786-0 renal
HCT-116 colon = system: HCT-116 colon
IGROV1 ovarian = system: IGROV1 ovarian
NCI-H460 lung = system: NCI-H460 lung

[Cl][Bi]([O]c1ccccn1)[O]c1ccccn1
> 100 µM: TGI (EKVX NSCLC) | TGI (SNB-19 CNS) | TGI (SK-MEL-2 melanoma) | TGI (OVCAR-4 ovarian) | TGI (TK-10 renal) | TGI (SK-OV-3 ovarian) | TGI (786-0 renal) | TGI (HCT-116 colon) | TGI (IGROV1 ovarian)
inactive: GI50 (EKVX NSCLC) > 100 µM | GI50 (SNB-19 CNS) > 100 µM | GI50 (SK-MEL-2 melanoma) > 100 µM | GI50 (OVCAR-4 ovarian) > 100 µM | GI50 (TK-10 renal) > 100 µM | GI50 (SK-OV-3 ovarian) > 100 µM | GI50 (786-0 renal) > 100 µM | GI50 (HCT-116 colon) > 100 µM | GI50 (IGROV1 ovarian) > 100 µM

Cc1cn(C2CC(F)C(CO)O2)c(=O)[nH]c1=O (centres undefined)
inactive: GI50 (EKVX NSCLC) > 100 µM | GI50 (SK-MEL-2 melanoma) > 100 µM | GI50 (NCI-H460 lung) 0.963 µM | GI50 (OVCAR-4 ovarian) > 100 µM | GI50 (TK-10 renal) > 100 µM | GI50 (SK-OV-3 ovarian) > 100 µM | GI50 (786-0 renal) > 100 µM | GI50 (HCT-116 colon) > 100 µM | GI50 (IGROV1 ovarian) > 100 µM
> 100 µM: TGI (EKVX NSCLC) | TGI (SK-MEL-2 melanoma) | TGI (NCI-H460 lung) | TGI (OVCAR-4 ovarian) | TGI (TK-10 renal) | TGI (SK-OV-3 ovarian) | TGI (786-0 renal) | TGI (HCT-116 colon) | TGI (IGROV1 ovarian)

Cc1c(/C=N/NS(=O)(=O)c2ccccc2)no[n+]1[O-]
> 100 µM: TGI (EKVX NSCLC) | TGI (SNB-19 CNS) | TGI (SK-MEL-2 melanoma) | TGI (OVCAR-4 ovarian) | TGI (TK-10 renal) | TGI (SK-OV-3 ovarian) | TGI (786-0 renal) | TGI (HCT-116 colon) | TGI (IGROV1 ovarian)

Cc1ccc(C(CN(C)C)C(=O)c2ccccc2)cc1 (centres undefined)
inactive: GI50 (EKVX NSCLC) 4.63 µM | GI50 (SNB-19 CNS) 10.4 µM | GI50 (SK-MEL-2 melanoma) 4.45 µM | GI50 (NCI-H460 lung) 7.38 µM | GI50 (OVCAR-4 ovarian) 2.76 µM | GI50 (SK-OV-3 ovarian) 14.7 µM | GI50 (786-0 renal) 2.12 µM | GI50 (HCT-116 colon) 0.514 µM | GI50 (IGROV1 ovarian) 3.62 µM
23.1 µM: TGI (EKVX NSCLC)
4 µM: TGI (786-0 renal)
13 µM: TGI (OVCAR-4 ovarian)
1.83 µM: TGI (HCT-116 colon)
11.5 µM: TGI (IGROV1 ovarian)
15.8 µM: TGI (SK-MEL-2 melanoma)
24.3 µM: TGI (SNB-19 CNS)
21.9 µM: TGI (NCI-H460 lung)
31.3 µM: TGI (SK-OV-3 ovarian)

Clc1ccc(Cl)c2[s+]snc12
> 100 µM: TGI (EKVX NSCLC) | TGI (SNB-19 CNS) | TGI (OVCAR-4 ovarian) | TGI (TK-10 renal) | TGI (SK-OV-3 ovarian) | TGI (IGROV1 ovarian)
> 54.9 µM: TGI (HCT-116 colon)
> 88.3 µM: TGI (NCI-H460 lung)
> 56.1 µM: TGI (786-0 renal)

N#CC(C(=O)/C(=N/N)C(C#N)c1ccc(Cl)cc1)c1ccc(Cl)cc1 (centres undefined)
> 100 µM: TGI (EKVX NSCLC) | TGI (SNB-19 CNS) | TGI (SK-MEL-2 melanoma) | TGI (NCI-H460 lung) | TGI (OVCAR-4 ovarian) | TGI (TK-10 renal) | TGI (786-0 renal) | TGI (HCT-116 colon) | TGI (IGROV1 ovarian)

COC(=O)C1CC(C(=O)OC)c2nc3cc(C)ccc3nc21 (centres undefined)
> 100 µM: TGI (EKVX NSCLC) | TGI (SNB-19 CNS) | TGI (SK-MEL-2 melanoma) | TGI (NCI-H460 lung) | TGI (OVCAR-4 ovarian) | TGI (TK-10 renal) | TGI (SK-OV-3 ovarian) | TGI (786-0 renal) | TGI (IGROV1 ovarian)

CC(=O)Nc1ccc(C(=O)N2N=C(C)/C(=C/c3ccccc3O)C2=O)cc1
> 100 µM: TGI (EKVX NSCLC) | TGI (SNB-19 CNS) | TGI (SK-MEL-2 melanoma) | TGI (NCI-H460 lung) | TGI (OVCAR-4 ovarian) | TGI (TK-10 renal) | TGI (786-0 renal) | TGI (HCT-116 colon)

N#CC(NNC(=O)c1ccccc1O)c1ccc(O)cc1 (centres undefined)
78.5 µM: TGI (SK-MEL-2 melanoma)
> 100 µM: TGI (NCI-H460 lung) | TGI (OVCAR-4 ovarian) | TGI (TK-10 renal) | TGI (SK-OV-3 ovarian) | TGI (786-0 renal) | TGI (HCT-116 colon) | TGI (IGROV1 ovarian)

Cc1cccc(C(C)(C)C)c1NC(=O)C(=O)C(C(=O)/C=C\c1ccccc1)C1OC(=O)c2ccccc21 (centres undefined)
> 100 µM: TGI (EKVX NSCLC) | TGI (SNB-19 CNS) | TGI (NCI-H460 lung) | TGI (OVCAR-4 ovarian) | TGI (TK-10 renal) | TGI (SK-OV-3 ovarian) | TGI (786-0 renal) | TGI (HCT-116 colon) | TGI (IGROV1 ovarian)

[N-]=[N+]=NC(c1cn(C2CC(O)C(CO)O2)c(=O)[nH]c1=O)C(Br)I (centres undefined)
> 100 µM: TGI (EKVX NSCLC) | TGI (SNB-19 CNS) | TGI (SK-MEL-2 melanoma) | TGI (NCI-H460 lung) | TGI (TK-10 renal) | TGI (SK-OV-3 ovarian) | TGI (786-0 renal) | TGI (HCT-116 colon) | TGI (IGROV1 ovarian)

COc1ccc2[nH]c(-c3ccccn3)cc(=O)c2c1
> 100 µM: TGI (EKVX NSCLC) | TGI (SNB-19 CNS) | TGI (NCI-H460 lung) | TGI (OVCAR-4 ovarian) | TGI (TK-10 renal) | TGI (SK-OV-3 ovarian) | TGI (786-0 renal) | TGI (HCT-116 colon) | TGI (IGROV1 ovarian)
inactive: GI50 (HCT-116 colon) 33.6 µM

CC(=O)CCCCCCCCCCCC[C@@H]1CC[C@H](C)[C@H](O)N1
> 100 µM: TGI (EKVX NSCLC) | TGI (SNB-19 CNS) | TGI (SK-MEL-2 melanoma) | TGI (NCI-H460 lung) | TGI (TK-10 renal) | TGI (SK-OV-3 ovarian) | TGI (786-0 renal) | TGI (HCT-116 colon) | TGI (IGROV1 ovarian)

COc1ccc(-n2c(SCc3cc(OC)c(OC)c(OC)c3)nc3ccc(C)cc3c2=O)c(OC)c1
85.1 µM: TGI (SK-MEL-2 melanoma)
> 100 µM: TGI (SNB-19 CNS) | TGI (NCI-H460 lung) | TGI (OVCAR-4 ovarian) | TGI (TK-10 renal) | TGI (SK-OV-3 ovarian) | TGI (786-0 renal) | TGI (HCT-116 colon) | TGI (IGROV1 ovarian)
inactive: GI50 (SNB-19 CNS) 6.99 µM | GI50 (SK-MEL-2 melanoma) 3.73 µM | GI50 (NCI-H460 lung) 3.68 µM | GI50 (OVCAR-4 ovarian) 4.65 µM | GI50 (TK-10 renal) 93.8 µM | GI50 (SK-OV-3 ovarian) 4.96 µM | GI50 (786-0 renal) 4.99 µM | GI50 (HCT-116 colon) 3.85 µM | GI50 (IGROV1 ovarian) 7.2 µM

COCCn1cc(-c2csc(-c3c[nH]c4ccccc34)n2)c2cccnc21
> 100 µM: TGI (EKVX NSCLC) | TGI (SNB-19 CNS) | TGI (SK-MEL-2 melanoma) | TGI (NCI-H460 lung) | TGI (OVCAR-4 ovarian) | TGI (SK-OV-3 ovarian) | TGI (786-0 renal) | TGI (HCT-116 colon) | TGI (IGROV1 ovarian)
inactive: GI50 (EKVX NSCLC) 2 µM | GI50 (SNB-19 CNS) 16.2 µM | GI50 (SK-MEL-2 melanoma) 7.38 µM | GI50 (NCI-H460 lung) 3.4 µM | GI50 (OVCAR-4 ovarian) 1.76 µM | GI50 (SK-OV-3 ovarian) 14.8 µM | GI50 (786-0 renal) 6.25 µM | GI50 (HCT-116 colon) 3.63 µM | GI50 (IGROV1 ovarian) 2.53 µM

CC1OC(n2ncc(=O)[nH]c2=O)C=CC1=O (centres undefined)
inactive: GI50 (SNB-19 CNS) > 100 µM and 35.1 µM | GI50 (SK-MEL-2 melanoma) > 100 µM and 49.2 µM | GI50 (SK-OV-3 ovarian) > 100 µM and 29.3 µM
> 100 µM: TGI (SNB-19 CNS) | TGI (SK-MEL-2 melanoma) | TGI (NCI-H460 lung) | TGI (OVCAR-4 ovarian) | TGI (TK-10 renal) | TGI (SK-OV-3 ovarian) | TGI (786-0 renal) | TGI (HCT-116 colon) | TGI (IGROV1 ovarian)

O=c1cccc(C#CC#C[C@H]2O[C@@H]2CO)o1
6.74 µM: TGI (NCI-H460 lung)
> 21 µM: TGI (SK-MEL-2 melanoma)
1.85 µM: TGI (IGROV1 ovarian)
4.18 µM: TGI (EKVX NSCLC)
1.54 µM: TGI (786-0 renal)
1.93 µM: TGI (TK-10 renal)
inactive: GI50 (EKVX NSCLC) 1.97 µM | GI50 (SNB-19 CNS) 6.24 µM | GI50 (SK-MEL-2 melanoma) 5.53 µM | GI50 (NCI-H460 lung) 1.08 µM | GI50 (TK-10 renal) 0.495 µM | GI50 (SK-OV-3 ovarian) 2.66 µM | GI50 (786-0 renal) 0.637 µM | GI50 (HCT-116 colon) 0.638 µM | GI50 (IGROV1 ovarian) 0.624 µM
7.18 µM: TGI (SK-OV-3 ovarian)
14.4 µM: TGI (SNB-19 CNS)

CC(C)C(=O)/C=C/c1ccccc1
> 100 µM: TGI (SNB-19 CNS) | TGI (SK-MEL-2 melanoma) | TGI (NCI-H460 lung) | TGI (OVCAR-4 ovarian) | TGI (SK-OV-3 ovarian) | TGI (786-0 renal) | TGI (HCT-116 colon) | TGI (IGROV1 ovarian)

N#Cc1c(C(=O)c2ccccc2)cnn1-c1ccccc1
> 25 µM: TGI (SNB-19 CNS) | TGI (SK-MEL-2 melanoma) | TGI (NCI-H460 lung) | TGI (OVCAR-4 ovarian) | TGI (TK-10 renal) | TGI (SK-OV-3 ovarian) | TGI (786-0 renal) | TGI (HCT-116 colon) | TGI (IGROV1 ovarian)
inactive: GI50 (SNB-19 CNS) > 25 µM | GI50 (SK-MEL-2 melanoma) > 25 µM | GI50 (NCI-H460 lung) > 25 µM | GI50 (OVCAR-4 ovarian) > 25 µM | GI50 (TK-10 renal) > 25 µM | GI50 (SK-OV-3 ovarian) > 25 µM | GI50 (786-0 renal) > 25 µM | GI50 (HCT-116 colon) > 25 µM | GI50 (IGROV1 ovarian) > 25 µM
